Test results reported in patent publication US20220402998A1, “PROTEASE SWITCH FOR DUAL TARGETS CHIMERIC ANTIGEN RECEPTOR T CELL THERAPY” (priority 2019, published 2022).

Tested on: NS3/4A protease domain of the CAR
Assay: CAR surface expression on transduced T cells by flow cytometry with or without asunaprevir
Format: cell-based, hepatitis C virus
Experimental: For flow cytometry, cells are stained using standard procedures. Briefly, cells are suspended at a concentration of 1×10^7 cells/ml in PBS+3% FBS for analysis or in Sort Buffer (PBS, 25 mM HEPES, 1 mM EDTA, 0.1% BSA) for sorting. […] Cells are analyzed by flow cytometry using a CytoFLEX (Beckman Coulter Life Sciences, Indianapolis, Ind.) and operated under standard procedures. To enrich subpopulations of CD4+ and/or CD8+ cells, magnetically separated cells are stained with anti-CD4 and/or anti-CD8 antibodies and sorted on a FACScalibur Cell Sorter.
After T cell transduction, different drugs were provided, CD19-, CD22-CAR were detected by CD19, CD22 protein through flow cytometry. Further, the biological characteristics of the dual-target switchable CAR-T cells were determined. For example, CD25 and CD69 antibodies were used to perform activation assays, CFSE for proliferation assays, CD4, CD8, CCR7 and CD45RA antibodies for determining T cell subsets, and Annexin-V for apoptosis assays. Further, cytotoxicity assays (Calcein-AM release), CD107a assay, and cytokine production detection were performed. These assays are of great importance in testing potency and defining how the switch system works.

Question: With `C=C[C@@H]1C[C@]1(NC(=O)[C@@H]1C[C@@H](Oc2ncc(OC)c3ccc(Cl)cc23)CN1C(=O)[C@@H](NC(=O)OC(C)(C)C)C(C)(C)C)C(=O)NS(=O)(=O)C1CC1` [asunaprevir] as the compound, how does the “stability of CAR expression levels over time” value (in the presence of asunaprevir) read?
Answer: stable over time

Question: And the “CAR expression on T cell surface” value (in the presence of asunaprevir, flow cytometry)?
Answer: a significant portion of T cells express on their cell surface the CAR

Question: And the “expression levels of CARs on cell surface versus concentration” value (increasing concentrations of asunaprevir)?
Answer: increase with exposure of said T cells to increasing concentrations of asunaprevir

Question: What about the “CARs on the surface of CAR-T cells after withdrawal” value (withdrawal of asunaprevir for 24 hours) of the same compound?
Answer: significant reduction of CARs on the surface of CAR-T cells

Question: What about the “CARs on the surface of CAR-T cells after withdrawal” value (withdrawal of asunaprevir for 48 hours) of the same compound?
Answer: absence of CARs on CAR-T cells
